The text below walks through data of US20040037806A1, “Aldosterone blocker therapy to prevent or treat inflammation-related disorders” (Pharmacia Corporation, priority 2002, published 2004).

Values joined by “and” are separate entries in the source; they are usually repeats but may differ in a detail not shown here. Equal entries are not always repeated.

Test [1] can be described thus: Assay C: myocardial hydroxyproline colorimetric assay. In kind it is in vivo, rat. The settings on record: 7 days of treatment; myocardium; aldosterone + salt alone or with eplerenone 100 mg/kg/day; individual rats and group Mean. The protocol:
The procedure of Assay B was expanded upon in a further study. […] Myocardial tissue from animals in each treatment group was examined after 7, 14, or 30 days of treatment. […] Lesions were preceded by the expression and progressive upregulation of proinflammatory molecules. […] Prior to surgery the animals were individually weighed and placed in one of the following groups: […] Potassium chloride supplementation was added to the saline solution in order to prevent the potential hypokalemia associated with aldosterone excess. Treatment At the time of the surgery, an Alzet 2002 osmotic minipump (Alza Corp., Palo Alto, Calif.) containing either vehicle (9% ethanol/87% propylene glycol/4% dH2O) or 1.0 mg/mL d-aldosterone (Sigma Chemical, St. Louis, Mo.) was inserted subcutaneously at the nape of the neck. Aldosterone was administered at a dose of 0.75 µg/hour. […] Animals were sacrificed from each group (n=8-13) after 7, 14, or 30 days of treatment. Myocardial hydroxyproline concentration was measured by a colorimetric assay that quantifies the reaction between oxidized hydroxyproline, and p-dimethylaminobenzaldehyde as described previously (4). […] Samples were incubated at 60° C. for 30 min, cooled to room temperature, and absorbance was monitored at 558 nm. Hydroxyproline content was quantitated from a freshly prepared standard curve of trans-4-hydroxy-L-proline (Sigma, St. Louis, Mo.). […]

Test [2] can be described thus: Urinary protein excretion in angiotensin II infused, captopril treated stroke prone spontaneously hypertensive rats. To be noted: captopril treated stroke prone spontaneously hypertensive rats (FIG. 35). The format is in vivo, rat.

Regarding `COC(=O)[C@@H]1CC2=CC(=O)CC[C@]2(C)[C@@]23O[C@@H]2C[C@@]2(C)[C@@H](CC[C@@]24CCC(=O)O4)[C@H]13` [eplerenone], the Hydroxyproline in test [1] was 4.08 µg/mg and 2.41 µg/mg. For the same compound, the Urinary protein excretion entry in test [2] is reported as “inhibition of increased urinary protein excretion”.
